Results reported in US10517913B2, “Composition for prevention, alleviation, or treatment of peripheral neuropathy comprising Lithospermi Radix extract as an effective component” (priority 2015, dated 2019).
Each block holds one compound with its values, some of them ahead of it.

Experiments:
[1] = tested on: PC-12 cells; assay: Neurite outgrowth assay kit (NS225), qualitative analysis; format: cell-based; settings: 200 nM oxaliplatin, NGF 100 ng/ml, 48 hours
Protocol: (§1) PC-12 was purchased from the ATCC (USA). The cells were cultured in a 100 mm cell culture dish coated with collagen type I in an incubator at 37° C., 5% CO2, using a DMEM basal medium supplemented with 5% non-heat inactivated fetal bovine serum (FBS), 10% heat inactivated horse serum (HS), 100 unit/ml penicillin, and 100 μg/ml streptomycin. The basal medium, sera, and other additives were purchased from the Thermo Fisher Scientific.
The neuroprotective effect of the Lithospermi Radix extract of the present invention was determined using a neurite outgrowth analysis kit (NS225, Millipore) with 1 μm pore-sized membrane.
Specifically, PC-12 was cultured according to [Materials and Methods 3-1] for 72 hours in a DMEM low serum-differentiation medium supplemented with 1% horse serum, 100 unit/ml penicillin, 100 μg/ml streptomycin, and 100 ng/ml nerve growth factor (NGF). The membrane with 1 μm pores was coated by immersing it in a 24-well plate containing a 10 μg/ml collagen solution in an amount of 400 μl/well for 2 hours at 37° C. The collagen-coated membrane was transferred to a well containing a 600 μl of differentiation medium, and then, the differentiated PC-12 cells for 72 hours were plated at 75,000 cells/100 μl/membrane. The cells were treated with 200 nM oxaliplatin to induce neurotoxicity. […]

[2] = tested on: PC-12 cells; assay: NGF-induced neurite growth, quantitative image analysis; format: cell-based; settings: 200 nM oxaliplatin, NGF 100 ng/ml, 3 days
Protocol: as §1
Specifically, PC-12 cells cultured according to [Materials and Methods 3-1] were evenly plated at 1×10^4 cells/well on a 24-well plate coated with collagen type IV in a DMEM growth medium where the cells were allowed to adhere on the bottom of the plate. After 12 hours, the medium was exchanged with a serum-free DMEM medium containing 100 ng/ml nerve growth factor (NGF) to induce neurite growth. The cells were treated with 200 nM oxaliplatin (Oxal) to induce neurotoxicity. Cells were co-treated with the Lithospermi Radix extract (WLR) prepared according to [Materials and Methods 1] at concentrations of 25 and 100 μg/ml, and amifostine (Ami) at 500 μM as a positive control. After 3 days, the ratios of cells forming neurites and the lengths of the neurites were quantified using image analysis under an optical microscope.

[3] = tested on: astrocytes and microglial cells in spinal cord of peripheral neuropathic animals induced by oxaliplatin; assay: Immunohistological analysis of glial cells (GFAP, Iba-1) in lumbar spinal cord; format: in vivo, C57BL/6 mice
Source text: (§2) In the present invention, an animal model having peripheral neuropathy was induced by oxaliplatin. Eight-week old male C57BL/6 mice were purchased from the OrientBio. Following 1 week acclimation period in a cage in an animal test room, the base line (BL) of responses of experimental animals to 3 times of mechanical stimulations applied to the right hind footpad of the animal using von Frey filament hair. Then, the animals were divided into different groups (N=8 animals/group). Peripheral neuropathy was induced by injection of 5 mg/kg oxaliplatin through tail veins of animals (once a week, 2 times for 2 weeks, i.e., 10 mg/kg oxaliplatin in total). Oxaliplatin was purchased from the LC Laboratories.
(§3) The specimens were prepared to histologically determine the protective effect of the Lithospermi Radix extract (WLR) against neuronal damage in peripheral neuropathic animals induced by oxaliplatin. Specifically, the animal was anaesthetized by intraperitoneal injection of sodium pentobarbital (50 mg/kg), and then, blood was removed by perfusion of 0.9% physiological saline through the aorta via left ventricle. Following fixation by perfusion of 4% paraformaldehyde solution buffered with 0.1 M phosphate, the 4th to 6th lumbar spinal cords, dorsal root ganglia, and the hind footpad skins were removed. The tissues were further fixed in the same fixation solution as above. The paraffin-embedded tissues were sectioned at a 4 μm thickness. The slices were mounted on a glass slide, dried, and then, kept at room temperature until use.
The slice of spinal cord with 4 μm thickness was subjected to immunofluorescence staining using antibodies against GFAP and Iba-1 which are astrocyte and microglial cell markers, respectively. After removal of paraffin and hydration, the slice was immersed in citrate buffer solution (Vector Lab., USA) for 10 minutes in a microwave to recover antigenicity and increase reactivity. […]
The activity of the glial cells was expressed by the ratio (%) of the area of stained cells relative to the viewing area under a fluorescence microscope. The fluorescence microscopic images were analyzed compared to the control treatment using a software (Cellsense, Olympus).
Specifically, peripheral neuropathy was induced in male C57BL/6 mice by oxaliplatin (10 mg/kg) according to [Materials and Methods 4]. […] Using the obtained specimen, activation of astrocytes and microglial cells in dorsal horn areas of the lumbar spinal cord of the animals was measured by detecting GFAP and Iba-1 marker proteins, respectively, according to [Materials and Methods 6-2]. Distribution of intraepidermal nerve fiber (IENF) in the hind footpad skin was measured by detecting PGP9.5 marker protein according to [Materials and Methods 6-3].

[4] = tested on: intraepidermal nerve fiber (IENF) of peripheral neuropathic animals induced by oxaliplatin; assay: Quantitative histological analysis of intraepidermal nerve fiber (PGP9.5) in hind footpad skin; format: in vivo, C57BL/6 mice
Source text: as §2, with “Laboratories. […]” for “Laboratories.”
The slice of hind footpad skin with 4 μm thickness was subjected to immunofluorescence staining using a PGP9.5 antibody, a marker for IENF in skin. […] The expression level of intraepidermal nerve fibers was expressed by the number of fluorescence-stained nerves in epidermis which were stemmed from dermis per field length of the basal membrane of epidermis (IENF/mm) within a viewing area under a fluorescence microscope. The fluorescent microscopic images were analyzed compared with control treatment using a software (Cellsense, Olympus). […]

[5] = tested on: dorsal root ganglion (DRG) neurons of peripheral neuropathic animals induced by oxaliplatin; assay: Morphological cell analysis of dorsal root ganglion neurons; format: in vivo, C57BL/6 mice
Source text: as §2, §3
Dorsal root ganglions were cut out, sectioned into slices with 4 μm thickness and then, subjected to Azan-Mallory trichrome staining. The nucleoli in the stained slice were examined under an optical microscope. Among the neurons having discernible nucleoli, the number of neurons having eccentric nucleoli or multinucleolated nucleus was expressed as a percentage of the total neurons in a viewing area.
Specifically, peripheral neuropathy was induced in male C57BL/6 mice by oxaliplatin (10 mg/kg) according to [Materials and Methods 4]. After that, the mice were orally administered 6 times per week with 250 mg/kg of a Lithospermi Radix extract (WLR) prepared in [Materials and Methods 1] or 0.5% carboxymethyl cellulose (CMC) as a negative control. In addition, 100 mg/kg amifostine was intraperitoneally administered 2 times per week as a positive control. After drug administration for 2 weeks, dorsal root ganglion (DRG) was cut out according to [Materials and Methods 6-1]. Using the obtained specimen, morphological change of nucleus and nucleoli in the dorsal root ganglion (DRG) neurons was observed according to [Materials and Methods 6-4].

[6] = tested on: human lung cancer cells (A549); assay: Drug-herb interaction with oxaliplatin cytotoxicity (Ez-Cytox), A549; format: cell-based; settings: oxaliplatin 0 to 100 μg/ml alone (No treat), 72 hours
Protocol: (§4) A549 and HCT116 cells were purchased from the ATCC (USA). They were cultured in a 100 mm cell culture dish in an incubator at 37° C., 5% CO2, using an RPMI1640 basal medium supplemented with 10% heat inactivated FBS, 100 unit/ml penicillin, and 100 μg/ml streptomycin, and then used for in vitro tests. The basal medium, serum, and other additives were purchased from the Thermo Fisher Scientific.
(§5) Specifically, human lung cancer cells (A549) and human colon cancer cells (HCT116) were cultured according to [Materials and Methods 3-3]. The cells were plated in a 96-well culture dish at 5,000 cells per well. After 24 hours, the cells were simultaneously treated with serially diluted oxaliplatin (0 to 100 μg/ml) and the Lithospermi Radix extract (0(PBS), 10, 30, 100 μg/ml) prepared according to [Materials and Methods 1]. The cell only treated with oxaliplatin was served as a negative control. After 72 hours, the cell viability (%) was measured using Ez-Cytox assay kit. The rate of cell death (% death) caused by oxaliplatin was expressed by (100−cell viability (%)).

[7] = tested on: human colon cancer cells (HCT116); assay: Drug-herb interaction with oxaliplatin cytotoxicity (Ez-Cytox), HCT116; format: cell-based; settings: oxaliplatin 0 to 100 μg/ml alone (No treat), 72 hours
Protocol: as §4, §5

[8] = tested on: CYP1A2; assay: Induction of CYP1A2 gene expression in HepaRG (real-time PCR); format: in vitro ADME, human; settings: 50 μM omeprazole (positive control), 24 hours
Protocol: (§6) HepaRG was purchased from the Thermo Fisher Scientific. The cells were used immediately after purchase without any subculture. A William's medium E basal medium supplemented with Thaw, Plate & General Purpose Supplements was used for general cell culture. A William's medium E basal medium supplemented containing Induction Medium Supplements was used for induction experiment. The cells were cultured in a 24-well culture plate coated with collagen type I in an incubator at 37° C., 5% CO2. All culture media and additives used for HepaRG cell culture were purchased from the Thermo Fisher Scientific.
(§7) According to [Materials and Methods 3-4], human hepatoma cell line (HepaRG) were plated at 5×10^5 cells/ml in a 24-well plate coated with collagen type I and cultured for 72 hours at 37° C., 5% CO2. Then, the cells were treated for 24 hours with a positive control drug or with a Lithospermi Radix extract (WLR) at concentrations of 10, 20, 100, and 500 μg/ml. For a positive control drug, 50 μM omeprazole was used for CYP1A2 and CYP2B6, and 10 μM rifampicin was used for CYP3A4 and P-gp. Distilled water was used as a negative control. After 24 hours, total RNA was extracted using an Easy-Spin™ Total RNA extraction kit (iNtRON Biotechnology). cDNA was synthesized from total RNA (500 ng) using oligo dT and iScript cDNA synthesis kit (Bio-Rad). […]

[9] = tested on: CYP2B6; assay: Induction of CYP2B6 gene expression in HepaRG (real-time PCR); format: in vitro ADME, human; settings: 50 μM omeprazole (positive control), 24 hours
Protocol: as §6, §7

[10] = tested on: P-gp; assay: Induction of P-gp gene expression in HepaRG (real-time PCR); format: in vitro ADME, human; settings: 10 μM rifampicin (positive control), 24 hours
Protocol: as §6, §7

[11] = oxaliplatin 10 mg/kg, lumbar spinal cord dorsal horn
[12] = after oxaliplatin 10 mg/kg, WLR 250 mg/kg oral 6 times per week or amifostine 100 mg/kg i.p. 2 times per week, 2 weeks

Structure (SMILES): O=C1[O][Pt]2([NH][C@@H]3CCCC[C@H]3[NH]2)[O]C1=O [oxaliplatin]
- Nerve growth factor-induced neurite growth [1]: inhibited
- neurite growth induced by nerve growth factor (NGF) [2]: inhibited
- number of activated astrocytes (GFAP positive cells) [3, 11]: increased
- number of activated microglial cells (Iba-1 positive cells) [3, 11]: increased
- densities of intraepidermal nerve fibers in hind footpad skin ([4]; oxaliplatin 10 mg/kg): reduced
- frequency of DRG neurons having eccentric nucleoli ([5]; oxaliplatin 10 mg/kg): increased
- frequency of DRG neurons having multinucleolated nucleus ([5]; oxaliplatin 10 mg/kg): increased
- growth of cancer cells [6]: inhibited
- growth of cancer cells [7]: inhibited

Structure (SMILES): NCCCNCCSP(=O)(O)O [amifostine]
- oxaliplatin-increased number of activated astrocytes (GFAP positive cells) [3, 12]: reduced to the same extent
- oxaliplatin-increased number of activated microglial cells (Iba-1 positive cells) [3, 12]: reduced to the same extent
- oxaliplatin-reduced densities of intraepidermal nerve fibers in hind footpad skin [4, 12]: recovered
- oxaliplatin-induced morphological change: DRG neurons having eccentric nucleoli [5, 12]: reduced to the same extent
- oxaliplatin-induced morphological change: number of neurons having multinucleolated nucleus [5, 12]: decreased with statistical significance

- expression of CYP1A2 [8]: effectively enhanced
- expression of CYP2B6 [9]: effectively enhanced
Structure (SMILES): COc1ccc2[nH]c([S+]([O-])Cc3ncc(C)c(OC)c3C)nc2c1 (centres unmarked) [omeprazole]

Structure (SMILES): CO[C@H]1/C=C/O[C@@]2(C)Oc3c(C)c(O)c4c(O)c(c(/C=N/N5CCN(C)CC5)c(O)c4c3C2=O)NC(=O)/C(C)=C\C=C\[C@H](C)[C@H](O)[C@@H](C)[C@@H](O)[C@@H](C)[C@H](OC(C)=O)[C@@H]1C [rifampicin]
- expression of P-gp [10]: effectively enhanced
